Measured values reported in article PMC7395068, “The evolution of strategies to minimise the risk of human drug-induced liver injury (DILI) in drug discovery and development” (Archives of Toxicology, 2020).
Where two headings read alike, the source gives them in different places.

Key:
[1] = Plasma free fraction (fu) and unbound Cmax (Cmax,u); format: in vitro ADME, human; settings: unbound plasma Cmax
Experimental: The prediction of DILI severity was evaluated further using the 3D combined HCI assays using plasma-free fraction. The majority of fu values were obtained from literature, when unavailable in-house prediction was utilised. Unbound plasma Cmax concentrations (Cmax,u) were derived by multiplying total plasma Cmax with the corresponding free fraction (fu) for each compound.

HepG2 cells [2] = settings: cited from earlier work
HepG2 cells [3] = settings: cited from earlier work; remark: listed apart in the source
PHH = settings: cited from earlier work
hLiMTs [4] = settings: cited from earlier work
PHH spheroids = settings: cited from earlier work
[5] = test system: HepG2 C3A spheroid, BSEP, Glu/Gal in HepG2 cells, bioactivation; settings: cited from earlier work
[6] = read-out: Human plasma Cmax; total plasma Cmax.tot, median of 9 literature references; cited from earlier work
[7] = plasma free fraction; cited from earlier work
[8] = cited from earlier work
[9] = test system: THLE-Null and THLE-3A4 cells; settings: In vitro Assay; ref Gustafsson 2014; cited from earlier work
[10] = test system: HepG2 cells, primary human hepatocytes; settings: In vitro Assay; ref Garside 2014; cited from earlier work
[11] = test system: isolated mouse liver mitochondria; settings: In vitro Assay; ref Porceddu 2012; cited from earlier work
rBsep = settings: In vitro Assay; ref Dawson 2012; cited from earlier work
hLiMTs [12] = assay: Combined HCI (HCS) and cellular ATP 3D assay in hLiMTs
HepaRG spheroids = assay: Combined HCI (HCS) and cellular ATP 3D assay in HepaRG spheroids
Experimental: 3D spheroid models consisting of either primary human hepatocytes with non-parenchymal cells (hLiMT’s) or HepaRG cells (HepaRG spheroids) were assessed for size (MS), oxidative stress (OS), MMP, mitochondrial mass (MM), GSH and cellular ATP content following drug exposure. Fluorescent images are acquired using the confocal mode of an ArrayScan™ XTI HCI reader (ThermoScientific) following which cellular ATP was measured using 3D CellTiter-Glo (Promega).

[13] = In vitro Assay, ref Persson 2013
[14] = In vitro Assay, ref Proctor 2017
[15] = Microtissue model structural based (HCI), combined HCS and ATP, MEC < 25 × Cmax.tot cut-off

C#CCN(C)Cc1ccccc1 [pargyline]
819 nM: Cmax [6]
+VE: Cluster 1-6 +VE Assay [10]
-VE: Structural based (HCI) (HepG2 cells [2]; In vitro Assay, ref O'Brien 2006) | DILI in vitro assay prediction, O'Brien (2006) (HepG2 cells [2]; Structural based (HCI), HepG2, ref O'Brien et al. 2006) | Cluser analysis (HepG2 cells [3]; [13]) | Structural based (HCI) (HepG2 cells [3]; [13]) | DILI in vitro assay prediction, Persson (2013) (HepG2 cells [3]; Structural based (HCI), HepG2, ref Persson et al. 2013) | PHH/100xCmax, Proctor (2017) (PHH; 2D PHH, ATP, IC50 < 100 × Cmax.tot, ref Proctor et al. 2017) | PHH/100uM, Proctor (2017) (PHH; 2D PHH, ATP, IC50 threshold 100 µM, ref Proctor et al. 2017) | PHH ATP <100uM (PHH; [14]) | hLiMTs ATP <100uM (hLiMTs [4]; [14]) | hLiMTs/100xCmax, Proctor (2017) (hLiMTs [4]; hLiMTs, ATP, IC50 < 100 × Cmax.tot, ref Proctor et al. 2017) | hLiMTs/100uM, Proctor (2017) (hLiMTs [4]; hLiMTs, ATP, IC50 threshold 100 µM, ref Proctor et al. 2017) | hLiMTs ATP <20 x Cmax (PHH spheroids; In vitro Assay, ref Vorrink 2018) | DILI in vitro assay prediction, Vorrink (2018) (PHH spheroids; PHH spheroids, ATP, 14 days, IC20 < 20 × Cmax.tot, ref Vorrink et al. 2018) | Bayesian Machine Learning DILI prediction, Williams (2019) ([5]; Bayesian modeling, ref Williams et al. 2019) | Bayesian Machine Learning ([5]; In vitro Assay, ref Williams 2019) | In vivo DILI ([8]; ref Dawson 2012) | In vivo DILI ([8]; ref Garside 2014) | In vivo DILI ([8]; ref Gustafsson 2014) | In vivo DILI ([8]; ref O'Brien 2006) | In vivo DILI ([8]; ref Persson 2013) | In vivo DILI ([8]; ref Porceddu 2012) | In vivo DILI ([8]; ref Proctor 2017) | In vivo DILI ([8]; ref Vorrink 2018) | In vivo DILI ([8]; ref Williams 2019) | THLE-Null [9] | THLE-Null/3A4 [9] | in vitro data EC2<=1x Cmax [11] | in vitro data EC20<=2uM [11] | Inhibition of rBsep cutoff<1& cmax u>.2 (rBsep) | Inhibition of rBsep cutoff<3 (rBsep) | DILI prediction hLiMTs (HCS-MEC) (hLiMTs [12]; [15]) | DILI prediction HepaRG spheroids (HCS-MEC) (HepaRG spheroids; [15])
1: Assigned DILI category ([8]; Chen et al. 2016 or literature alignment, ref Chen et al. 2016)
0.290: fu [7]
-ve: hLiMTs <25x Avg Cmax ATP (hLiMTs [12]; hLiMTs, ATP endpoint, cut-off <25x Avg Cmax) | hLiMTs <100x Avg Cmaxu ATP (hLiMTs [12]; hLiMTs, ATP endpoint, cut-off <100x Avg Cmaxu) | hLiMTs <25x Avg Cmax HCS (hLiMTs [12]; hLiMTs, HCS endpoints, cut-off <25x Avg Cmax) | hLiMTs <100x Avg Cmaxu HCS (hLiMTs [12]; hLiMTs, HCS endpoints, cut-off <100x Avg Cmaxu) | hLiMTs <25x Avg Cmax All (hLiMTs [12]; hLiMTs, all endpoints (ATP and HCS), cut-off <25x Avg Cmax) | hLiMTs Cmax max All (hLiMTs [12]; hLiMTs, all endpoints, Cmax max used) | hLiMTs Cmax min All (hLiMTs [12]; hLiMTs, all endpoints, Cmax min used) | hLiMTs <10 uM All (hLiMTs [12]; hLiMTs, all endpoints, cut-off <10 uM) | hLiMTs <100x Avg Cmaxu All (hLiMTs [12]; hLiMTs, all endpoints, cut-off <100x Avg Cmaxu) | HepaRG <25x Avg Cmax ATP (HepaRG spheroids; HepaRG, ATP endpoint, cut-off <25x Avg Cmax) | HepaRG <100x Avg Cmaxu ATP (HepaRG spheroids; HepaRG, ATP endpoint, cut-off <100x Avg Cmaxu) | HepaRG <25x Avg Cmax HCS (HepaRG spheroids; HepaRG, HCS endpoints, cut-off <25x Avg Cmax) | HepaRG <100x Avg Cmaxu HCS (HepaRG spheroids; HepaRG, HCS endpoints, cut-off <100x Avg Cmaxu) | HepaRG <25x Avg Cmax All (HepaRG spheroids; HepaRG, all endpoints (ATP and HCS), cut-off <25x Avg Cmax) | HepaRG Cmax max All (HepaRG spheroids; HepaRG, all endpoints, Cmax max used) | HepaRG Cmax min All (HepaRG spheroids; HepaRG, all endpoints, Cmax min used) | HepaRG <10 uM All (HepaRG spheroids; HepaRG, all endpoints, cut-off <10 uM) | HepaRG <100x Avg Cmaxu All (HepaRG spheroids; HepaRG, all endpoints, cut-off <100x Avg Cmaxu)
237 nM: Human plasma Cmax,u [1]
